How the values were obtained:
intracellular sucrase = tested on: T1, intracellular sucrase; assay: colorimetric glucose release ([…] nm), Lineweaver-Burk; format: biochemical, Leishmania donovani; conditions: 50 mM sodium acetate, pH 6.0, 30°C, 30 min; 0.4-5.0 mM sucrose; purified enzyme
T1 construct: native purification from promastigote cell-free extract; ~56 kDa subunit (SDS-PAGE), ~112 kDa native, proposed homodimer; gene not identified

[1] = molecular target: intracellular sucrase of Leishmania donovani promastigotes (Leishmania donovani (endogenous in promastigotes, strain MOHM/IN/1978/UR6)); assay: SEC; Sephacryl S-200 column (120 x 1 cm), Buffer A (50 mM Tris-HCl, pH 7.4), 22 mL/hr; ammonium sulfate fraction of cell-free extract, sucrase followed by activity; native size from calibration graph compared with the subunit size in 10% SDS-PAGE

Row | stoichiometry N [1] | Molecule | Km (intracellular sucrase) [µM]
1 |  | OC[C@H]1O[C@@](CO)(O[C@H]2O[C@H](CO)[C@@H](O)[C@H](O)[C@H]2O)[C@@H](O)[C@@H]1O [sucrose] | 1610
2 | 2 | intracellular sucrase of Leishmania donovani promastigotes (enzyme) | 

From article PMC4848734, “Purification and Characterization of a Novel Intracellular Sucrase Enzyme of Leishmania donovani Promastigotes” (Biochemistry Research International, 2016)
